Where a name gives a salt, the structure may show the parent alone.

For one assay, the target named is human complement factor B (CVF-Bb complex) (Homo sapiens (Human), UniProt P00751). In words: Human Complement Factor B ELISA Assay. Format: biochemical.
Conditions: not given
In short, it runs like this: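 Preformed CVF-Bb complex (3 nM; cobra venom factor with recombinant human factors B and D) preincubated with compound 1 h, RT, in PBS pH 7.4, 10 mM MgCl2, 0.05% CHAPS. Plasma C3 added at 1 μM final for 1 h, then stopped; C3a product measured by ELISA, IC50 from % inhibition.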
(An ELISA detects its analyte on a solid surface through an enzyme-linked reagent.)
One may read the IC50 as the concentration at which inhibition is half-maximal. Consider `COc1cc2c(N)nc(N3CCN(C(=O)C[C@@H](N)c4ccco4)CC3)nc2c(F)c1OC` [Example 34, (R)-3-Amino-1-[4-(4-amino-8-fluoro-6,7-dimethoxy-quinazolin-2-yl)-piperazin-1-yl]-3-furan-2-yl-propan-1-one hydrochloride], for which it took 90 nM to reach half-maximal inhibition (IC50).

Consider `COc1cc2c(N)nc(N3CCN(C(=O)C[C@@H](N)c4cccs4)CC3)nc2c(F)c1OC` [Example 36, (R)-3-Amino-1-[4-(4-amino-8-fluoro-6,7-dimethoxy-quinazolin-2-yl)-piperazin-1-yl]-3-thiophen-2-yl-propan-1-one hydrochloride], for which the IC50 stood at 190 nM. The molecule `COc1cc2c(N)nc(N3CCN(C(=O)C[C@@H](N)c4ccccc4)C[C@@H]3C)nc2c(F)c1OC` [Example 57, (R)-3-Amino-1-[(S)-4-(4-amino-8-fluoro-6,7-dimethoxy-quinazolin-2-yl)-3-methyl-piperazin-1-yl]-3-phenyl-propan-1-one hydrochloride] yielded an IC50 of 210 nM.

Staying with this assay, now noted: CVF-Bb complex 3 nM, 1 hour preincubation with compound at room temperature, human C3 substrate 1 μM, C3a quantified by ELISA; read-out: Factor B IC50.
Consider `CCN[C@H](CC(=O)N1CCN(c2nc(N)c3cc(OC)c(OC)c(F)c3n2)CC1)c1ccc(F)cc1` [Example 84, (R)-1-[4-(4-Amino-8-fluoro-6,7-dimethoxy-quinazolin-2-yl)-piperazin-1-yl]-3-ethylamino-3-(4-fluoro-phenyl)-propan-1-one], for which the IC50 was found to be 6 nM.

Consider `COc1cc2c(N)nc(N3CCN(C(=O)C[C@@H](N)c4ccc(C)s4)CC3)nc2c(F)c1OC` [Example 38, (R)-3-Amino-1-[4-(4-amino-8-fluoro-6,7-dimethoxy-quinazolin-2-yl)piperazin-1-yl]-3-(5-methyl-thiophen-2-yl)-propan-1-one], for which the IC50 amounted to 180 nM. Consider `COc1cc2nc(N3CCN(C(=O)/C=C/C4CC4)CC3)nc(N)c2c(F)c1OC` [Example 12, (E)-1-[4-(4-Amino-5-fluoro-6,7-dimethoxy-quinazolin-2-yl)-piperazin-1-yl]-3-cyclopropyl-propenone], for which the IC50 is 140 nM. In the case of `COc1cc2c(N)nc(N3CCN(C(=O)CC4NCc5ccccc54)CC3)nc2c(F)c1OC` (stereo not shown) [Example 112, 1-[4-(4-Amino-8-fluoro-6,7-dimethoxy-quinazolin-2-yl)-piperazin-1-yl]-2-(2,3-dihydro-1H-isoindol-1-yl)-ethanone], the IC50 was found to be 350 nM. As to `COc1cc2c(N)nc(N3CCN(C(=O)c4cc5cc(C#N)ccc5[nH]4)CC3)nc2c(F)c1OC` [Example 18, 2-[4-(4-Amino-8-fluoro-6,7-dimethoxy-quinazolin-2-yl)-piperazine-1-carbonyl]-1H-indole-5-carbonitrile], the IC50 amounted to 20 nM. Turning to `COc1cc2c(N)nc(N3CCN(C(=O)C[C@@H]4CCCN4)C[C@@H]3C)nc2c(F)c1OC` [Example 115, 1-[(S)-4-(4-Amino-8-fluoro-6,7-dimethoxy-quinazolin-2-yl)-3-methyl-piperazin-1-yl]-2-(S)-pyrrolidin-2-yl-ethanone], the IC50 came out at 320 nM. In the case of `COc1cc2c(N)nc(N3C[C@@H](C)N(C(=O)C[C@@H](N)c4ccccc4)C[C@@H]3C)nc2c(F)c1OC` [Example 73, (R)-3-Amino-1-[(2R,5S)-4-(4-amino-8-fluoro-6,7-dimethoxy-quinazolin-2-yl)-2,5-dimethyl-piperazin-1-yl]-3-phenyl-propan-1-one], the IC50 worked out at 60 nM. `COc1cc2c(N)nc(N3CCN(C(=O)C[C@@H](NCC(F)(F)F)c4ccc(F)cc4)CC3)nc2c(F)c1OC` [Example 88, (R)-1-[4-(4-Amino-8-fluoro-6,7-dimethoxy-quinazolin-2-yl)-piperazin-1-yl]-3-(4-fluoro-phenyl)-3-(2,2,2-trifluoro-ethylamino)-propan-1-one]: the half-maximal inhibitory concentration (IC50) came out at 30 nM. Turning to `COc1cc2c(N)nc(N3CCN(C(=O)C[C@@H](N)c4ccc(F)cc4)CC3)nc2c(C#N)c1OC` [Example 76, 4-Amino-2-{4-[(R)-3-amino-3-(4-fluoro-phenyl)-propionyl]-piperazin-1-yl}-6,7-dimethoxy-quinazoline-8-carbonitrile], the IC50 came to 100 nM.

For the molecule `COc1cc2c(N)nc(N3CCN(C(=O)/C=C/c4ccc(C#N)cc4)C[C@@H]3C)nc2c(F)c1OC` [Example 7, 4-{(E)-3-[(S)-4-(4-Amino-8-fluoro-6,7-dimethoxy-quinazolin-2-yl)-3-methyl-piperazin-1-yl]-3-oxo-propenyl}-benzonitrile], the IC50 was 20 nM.

On to `COc1cc2c(N)nc(N3CCN(C(=O)C[C@@H]4CCCCN4)CC3)nc2c(F)c1OC` [Example 113, 1-[4-(4-Amino-8-fluoro-6,7-dimethoxy-quinazolin-2-yl)-piperazin-1-yl]-2-(S)-piperidin-2-yl-ethanone], for which the IC50 amounted to 230 nM. Consider `CC[C@H]1CN(C(=O)c2cc3cc(C#N)ccc3[nH]2)CCN1c1nc(N)c2cc(OC)c(OC)c(F)c2n1` [Example 25, 2-[(S)-4-(4-Amino-8-fluoro-6,7-dimethoxy-quinazolin-2-yl)-3-ethyl-piperazine-1-carbonyl]-1H-indole-5-carbonitrile], for which the IC50 came to 6 nM. For `COc1cc2c(N)nc(N3CCN(C(=O)C[C@@H](N)c4ccccc4)CC3)nc2c(F)c1OC` [Example 39, (R)-3-Amino-1-[4-(4-amino-8-fluoro-6,7-dimethoxy-quinazolin-2-yl)-piperazin-1-yl]-3-phenyl-propan-1-one], the IC50 amounted to 230 nM. For the molecule `COc1cc2c(N)nc(N3CCN(C(=O)C[C@@H](N)c4cccc(C)c4)CC3)nc2c(F)c1OC` [Example 40, (R)-3-Amino-1-[4-(4-amino-8-fluoro-6,7-dimethoxy-quinazolin-2-yl)-piperazin-1-yl]-3-m-tolyl-propan-1-one], the IC50 came out at 220 nM. Still for that read-out and setting: as for `COc1cc2c(N)nc(N3CCN(C(=O)C[C@@H]4CCCNC4)CC3)nc2c(F)c1OC` [Example 114, 1-[4-(4-Amino-8-fluoro-6,7-dimethoxy-quinazolin-2-yl)-piperazin-1-yl]-2-(S)-piperidin-3-yl-ethanone], the figure is 3870 nM; as for `COc1cc2c(N)nc(N3CCN(C(=O)c4cc5cc(F)ccc5[nH]4)C[C@@H]3c3ccccc3)nc2c(F)c1OC` [Example 29, (S)-(4-(4-amino-8-fluoro-6,7-dimethoxyquinazolin-2-yl)-3-phenylpiperazin-1-yl)(5-fluoro-1H-indol-2-yl)methanone], 14 nM; as for `COCCOc1c(OC)cc2c(N)nc(N3CCN(C(=O)C[C@@H](N)c4ccc(C#N)cc4)CC3)nc2c1F` [Example 70, 4-((R)-1-Amino-3-{4-[4-amino-8-fluoro-6-methoxy-7-(2-methoxy-ethoxy)-quinazolin-2-yl]-piperazin-1-yl}-3-oxo-propyl)benzonitrile], 110 nM. With `COc1cc2c(N)nc(N3CCN(C(=O)C[C@@H](NCC4CC4)c4ccsc4)CC3)nc2c(F)c1OC` [Example 93, (R)-1-(4-(4-amino-8-fluoro-6,7-dimethoxyquinazolin-2-yl)piperazin-1-yl)-3-(cyclopropylmethylamino)-3-(thiophen-3-yl)propan-1-one], the IC50 came out at 4 nM.

With `COc1cc2c(N)nc(N3CCN(C(=O)/C=C/c4ccc(C#N)cc4)C[C@@H]3c3ccccc3)nc2c(F)c1OC` [Example 10, 4-{(E)-3-[(S)-4-(4-Amino-8-fluoro-6,7-dimethoxy-quinazolin-2-yl)-3-phenyl-piperazin-1-yl]-3-oxo-propenyl}-benzonitrile], the IC50 was found to be 6 nM.

The record behind these values is patent US9452990B2, “Complement pathway modulators and uses thereof” (NOVARTIS AG, priority 2012, dated 2016).
